Legend:
[1] = target: T1, PI3Kβ (Homo sapiens, UniProt P42338); test: PI3 Kinase HTRF assay, PI3Kβ; assay type: biochemical; conditions: 10 μM PIP2, 10 μM ATP; read-out: PI3K β IC50
T1 construct: purchased Millipore Corporation 14-603-K
In short: (§1)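 Time-resolved FRET kit assay measuring PIP3 made from 10 μM PIP2, ATP 10 μM, 1 h room temperature. IC50 fitted from 12-point dose-response.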

[2] = target: T2, PI3Kδ (Homo sapiens, UniProt O00329); test: PI3 Kinase HTRF assay, PI3Kδ; assay type: biochemical; conditions: 10 μM PIP2, 10 μM ATP; read-out: PI3K δ IC50
T2 construct: purchased Millipore Corporation 14-604-K
In short: as §1

[3] = tested on: Balb/c splenic B cells; test: B cell activation and proliferation assay (Alamar Blue); assay type: cell-based; conditions: Mus musculus, read-out: B cell prolif. IC50
Procedure: The ability of one or more subject compounds to inhibit B cell activation and proliferation is determined according to standard procedures known in the art. For example, an in vitro cellular proliferation assay is established that measures the metabolic activity of live cells. The assay is performed in a 96 well microtiter plate using Alamar Blue reduction. Balb/c splenic B cells are purified over a Ficoll-Paque™ PLUS gradient followed by magnetic cell separation using a MACS B cell Isolation Kit (Miletenyi). Cells are plated in 90 ul at 50,000 cells/well in B Cell Media (RPMI+10% FBS+Penn/Strep+50 uM bME+5 mM HEPES). A compound disclosed herein is diluted in B Cell Media and added in a 10 μl volume. Plates are incubated for 30 min at 37 C and 5% CO2 (0.2% DMSO final concentration). A 50 μl B cell stimulation cocktail is then added containing either 10 ug/ml LPS or 5 ug/ml F(ab′)2 Donkey anti-mouse IgM plus 2 ng/ml recombinant mouse IL4 in B Cell Media. Plates are incubated for 72 hours at 37° C. and 5% CO2. A volume of 15 μl of Alamar Blue reagent is added to each well and plates are incubated for 5 hours at 37 C and 5% CO2. Alamar Blue fluoresce is read at 560Ex/590Em, and IC50 or EC50 values are calculated using GraphPad Prism 5.

[4] = target: T3, PI3Kγ (Homo sapiens, UniProt P48736); test: PI3 Kinase HTRF assay, PI3Kγ; assay type: biochemical; conditions: 10 μM PIP2, 10 μM ATP; read-out: PI3K γ IC50
T3 construct: purchased Millipore Corporation 14-558-K
In short: as §1

[5] = target: T4, PI3Kα (Homo sapiens, UniProt P42336); test: PI3 Kinase HTRF assay, PI3Kα; assay type: biochemical; conditions: 10 μM PIP2, 10 μM ATP; read-out: PI3K α IC50
T4 construct: purchased Millipore Corporation 14-602-K
In short: as §1

T2 sequence (O00329 whole entry): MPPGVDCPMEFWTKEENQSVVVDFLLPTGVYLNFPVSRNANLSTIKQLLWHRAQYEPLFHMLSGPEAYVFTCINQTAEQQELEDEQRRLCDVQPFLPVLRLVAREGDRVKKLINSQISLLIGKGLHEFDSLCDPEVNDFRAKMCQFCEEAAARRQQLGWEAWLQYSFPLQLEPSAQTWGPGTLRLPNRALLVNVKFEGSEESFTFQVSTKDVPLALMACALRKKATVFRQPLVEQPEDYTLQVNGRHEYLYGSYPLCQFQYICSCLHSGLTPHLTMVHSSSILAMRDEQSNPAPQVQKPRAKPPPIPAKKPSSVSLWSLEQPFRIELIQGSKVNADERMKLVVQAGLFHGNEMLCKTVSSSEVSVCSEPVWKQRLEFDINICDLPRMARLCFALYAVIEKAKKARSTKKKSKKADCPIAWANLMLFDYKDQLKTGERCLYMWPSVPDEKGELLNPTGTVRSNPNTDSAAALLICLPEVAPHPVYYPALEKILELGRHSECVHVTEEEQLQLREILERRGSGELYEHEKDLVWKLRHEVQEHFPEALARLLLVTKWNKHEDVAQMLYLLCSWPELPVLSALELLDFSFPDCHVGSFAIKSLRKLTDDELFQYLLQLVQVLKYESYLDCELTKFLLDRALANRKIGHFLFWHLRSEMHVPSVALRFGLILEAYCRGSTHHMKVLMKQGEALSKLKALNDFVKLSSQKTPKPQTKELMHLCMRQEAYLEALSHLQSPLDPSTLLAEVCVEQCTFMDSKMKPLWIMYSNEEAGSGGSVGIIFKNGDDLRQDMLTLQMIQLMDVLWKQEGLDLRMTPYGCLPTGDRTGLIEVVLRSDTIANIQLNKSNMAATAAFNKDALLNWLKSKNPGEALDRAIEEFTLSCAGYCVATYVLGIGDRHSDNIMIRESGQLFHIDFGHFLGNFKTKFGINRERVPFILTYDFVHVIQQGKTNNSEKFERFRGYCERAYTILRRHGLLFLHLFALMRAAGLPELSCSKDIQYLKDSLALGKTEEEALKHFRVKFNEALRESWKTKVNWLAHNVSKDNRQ
T2 sequence (P27986 whole entry partner): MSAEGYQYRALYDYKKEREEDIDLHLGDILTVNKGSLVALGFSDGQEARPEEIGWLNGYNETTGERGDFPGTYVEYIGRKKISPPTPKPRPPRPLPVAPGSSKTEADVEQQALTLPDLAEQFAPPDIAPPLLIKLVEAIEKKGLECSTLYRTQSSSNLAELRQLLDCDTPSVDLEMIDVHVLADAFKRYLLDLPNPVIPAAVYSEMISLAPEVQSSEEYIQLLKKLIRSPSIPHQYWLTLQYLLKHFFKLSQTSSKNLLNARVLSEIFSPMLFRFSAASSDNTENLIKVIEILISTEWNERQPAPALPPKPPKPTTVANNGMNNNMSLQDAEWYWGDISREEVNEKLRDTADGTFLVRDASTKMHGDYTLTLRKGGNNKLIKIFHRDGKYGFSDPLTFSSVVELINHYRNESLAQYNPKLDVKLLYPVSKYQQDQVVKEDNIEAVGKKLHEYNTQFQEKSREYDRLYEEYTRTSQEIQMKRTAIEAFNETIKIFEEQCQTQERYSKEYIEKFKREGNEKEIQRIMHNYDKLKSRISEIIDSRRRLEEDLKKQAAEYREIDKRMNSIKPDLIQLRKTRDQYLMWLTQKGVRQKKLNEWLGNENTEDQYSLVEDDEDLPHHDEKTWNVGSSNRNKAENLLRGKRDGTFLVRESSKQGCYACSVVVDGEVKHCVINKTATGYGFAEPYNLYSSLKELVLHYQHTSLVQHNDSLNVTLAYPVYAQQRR
T4 sequence (P42336 whole entry): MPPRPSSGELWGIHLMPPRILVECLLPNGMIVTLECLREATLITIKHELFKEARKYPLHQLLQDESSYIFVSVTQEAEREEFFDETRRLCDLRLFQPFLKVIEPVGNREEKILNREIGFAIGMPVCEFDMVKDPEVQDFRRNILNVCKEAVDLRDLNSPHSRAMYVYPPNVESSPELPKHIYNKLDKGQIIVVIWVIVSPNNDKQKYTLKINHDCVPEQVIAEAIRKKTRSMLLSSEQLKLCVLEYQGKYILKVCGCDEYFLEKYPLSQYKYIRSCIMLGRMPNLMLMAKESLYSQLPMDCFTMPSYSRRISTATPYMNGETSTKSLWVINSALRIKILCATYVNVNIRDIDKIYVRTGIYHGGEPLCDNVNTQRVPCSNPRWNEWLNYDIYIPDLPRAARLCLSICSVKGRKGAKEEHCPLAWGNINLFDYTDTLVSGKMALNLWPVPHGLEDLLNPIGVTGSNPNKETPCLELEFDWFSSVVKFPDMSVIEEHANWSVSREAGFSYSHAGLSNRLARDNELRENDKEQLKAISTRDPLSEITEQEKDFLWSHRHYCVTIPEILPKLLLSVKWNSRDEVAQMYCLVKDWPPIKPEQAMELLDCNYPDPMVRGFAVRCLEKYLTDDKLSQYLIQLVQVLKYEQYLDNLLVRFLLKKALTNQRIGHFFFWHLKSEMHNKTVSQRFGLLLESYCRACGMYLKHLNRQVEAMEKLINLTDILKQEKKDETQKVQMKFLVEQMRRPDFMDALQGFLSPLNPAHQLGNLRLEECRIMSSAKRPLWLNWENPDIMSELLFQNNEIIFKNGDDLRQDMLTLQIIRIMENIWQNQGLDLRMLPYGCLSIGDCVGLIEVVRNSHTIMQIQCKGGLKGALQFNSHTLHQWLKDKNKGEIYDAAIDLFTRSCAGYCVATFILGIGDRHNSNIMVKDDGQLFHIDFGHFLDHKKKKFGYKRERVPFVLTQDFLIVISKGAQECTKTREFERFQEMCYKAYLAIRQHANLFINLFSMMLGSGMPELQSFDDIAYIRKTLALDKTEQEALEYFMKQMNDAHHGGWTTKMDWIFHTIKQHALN
T4 sequence (P27986 whole entry partner): as the sequence (P27986 whole entry partner) above
T3 sequence (P48736 whole entry): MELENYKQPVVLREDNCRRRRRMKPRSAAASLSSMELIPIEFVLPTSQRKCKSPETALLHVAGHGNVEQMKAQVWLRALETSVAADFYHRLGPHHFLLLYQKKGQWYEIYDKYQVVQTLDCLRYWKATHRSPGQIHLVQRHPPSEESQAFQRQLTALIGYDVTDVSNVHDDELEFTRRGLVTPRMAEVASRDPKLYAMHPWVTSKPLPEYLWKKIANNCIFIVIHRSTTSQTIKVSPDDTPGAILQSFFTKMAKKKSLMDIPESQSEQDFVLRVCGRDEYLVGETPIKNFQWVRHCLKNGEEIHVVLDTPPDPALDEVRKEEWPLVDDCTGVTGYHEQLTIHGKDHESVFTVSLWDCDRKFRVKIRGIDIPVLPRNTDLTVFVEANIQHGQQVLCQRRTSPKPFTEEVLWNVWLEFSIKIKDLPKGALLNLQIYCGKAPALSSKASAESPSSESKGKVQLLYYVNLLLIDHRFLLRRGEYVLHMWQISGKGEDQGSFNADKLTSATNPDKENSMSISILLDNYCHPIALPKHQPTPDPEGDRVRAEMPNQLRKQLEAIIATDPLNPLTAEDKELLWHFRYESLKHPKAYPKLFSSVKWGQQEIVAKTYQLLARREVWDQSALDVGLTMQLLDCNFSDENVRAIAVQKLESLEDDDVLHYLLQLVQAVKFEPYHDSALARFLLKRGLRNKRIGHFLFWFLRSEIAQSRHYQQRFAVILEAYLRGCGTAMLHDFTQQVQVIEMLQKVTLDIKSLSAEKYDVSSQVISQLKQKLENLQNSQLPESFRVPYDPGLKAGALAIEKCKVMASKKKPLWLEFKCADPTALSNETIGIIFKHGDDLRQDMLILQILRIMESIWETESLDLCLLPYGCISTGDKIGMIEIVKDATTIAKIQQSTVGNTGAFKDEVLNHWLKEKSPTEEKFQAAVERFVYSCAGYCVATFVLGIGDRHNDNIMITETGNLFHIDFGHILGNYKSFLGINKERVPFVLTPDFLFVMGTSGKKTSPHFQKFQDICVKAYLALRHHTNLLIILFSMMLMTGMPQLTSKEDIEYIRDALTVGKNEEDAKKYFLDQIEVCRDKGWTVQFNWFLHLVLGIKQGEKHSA
T1 sequence (P42338 whole entry): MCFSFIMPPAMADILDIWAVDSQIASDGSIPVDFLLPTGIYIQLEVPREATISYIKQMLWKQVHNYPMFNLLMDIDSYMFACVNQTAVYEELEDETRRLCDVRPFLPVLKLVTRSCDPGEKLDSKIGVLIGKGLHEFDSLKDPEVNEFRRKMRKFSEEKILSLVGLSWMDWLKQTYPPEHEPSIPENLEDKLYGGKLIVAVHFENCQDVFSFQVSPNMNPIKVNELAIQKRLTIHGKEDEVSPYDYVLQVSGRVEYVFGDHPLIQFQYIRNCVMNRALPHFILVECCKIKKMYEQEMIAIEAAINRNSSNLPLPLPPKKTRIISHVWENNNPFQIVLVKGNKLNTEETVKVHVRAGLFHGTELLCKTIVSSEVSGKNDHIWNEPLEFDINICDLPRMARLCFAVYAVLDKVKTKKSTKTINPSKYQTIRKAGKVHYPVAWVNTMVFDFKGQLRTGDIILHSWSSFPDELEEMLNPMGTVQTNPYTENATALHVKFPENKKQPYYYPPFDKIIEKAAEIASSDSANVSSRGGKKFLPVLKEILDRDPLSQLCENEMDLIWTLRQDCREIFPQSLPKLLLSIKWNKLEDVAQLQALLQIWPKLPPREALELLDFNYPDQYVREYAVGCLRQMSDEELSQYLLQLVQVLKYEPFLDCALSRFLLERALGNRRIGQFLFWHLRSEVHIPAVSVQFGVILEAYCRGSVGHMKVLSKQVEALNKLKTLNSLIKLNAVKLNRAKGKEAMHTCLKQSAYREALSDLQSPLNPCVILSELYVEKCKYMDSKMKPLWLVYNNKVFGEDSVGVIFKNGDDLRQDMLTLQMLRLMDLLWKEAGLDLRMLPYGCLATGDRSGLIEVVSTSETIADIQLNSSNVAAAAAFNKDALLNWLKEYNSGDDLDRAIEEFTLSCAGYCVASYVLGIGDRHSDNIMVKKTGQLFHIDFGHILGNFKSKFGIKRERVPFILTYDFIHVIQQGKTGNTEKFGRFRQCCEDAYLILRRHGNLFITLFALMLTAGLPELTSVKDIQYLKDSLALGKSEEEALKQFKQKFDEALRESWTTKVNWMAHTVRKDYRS
T1 sequence (P27986 whole entry partner): as the sequence (P27986 whole entry partner) above

Row | SMILES | IC50 [1] [µM] | IC50 [2] [µM] | IC50 [4] [µM] | IC50 [5] [µM] | IC50 [3] [µM]
1 | C[C@H](Nc1ncnc2[nH]cnc12)c1cc2cccc(Cl)c2c(C(=O)N2CCN(C)CC2)n1 [Compound 15] | > 10 | < 0.1 | < 10 | < 10 | < 0.1
2 | C[C@H](Nc1ncnc2[nH]cnc12)c1cc2cccc(Cl)c2c(C(=O)N2C3CCC2COC3)n1 [Compound 16] | < 10 | < 0.1 | < 10 | > 10 | < 0.1
3 | C[C@H](Nc1ncnc2[nH]cnc12)c1cc2cccc(Cl)c2c(C(=O)N2CC3CCC(C2)O3)n1 [Compound 19] | < 10 | < 0.1 | < 1 | > 10 | < 0.1
4 | C[C@H](Nc1ncnc2[nH]cnc12)c1cc2cccc(Cl)c2c(C(=O)NC2CCC2)n1 [Compound 23] | > 10 | < 0.1 | < 10 | > 10 | < 0.1
5 | C[C@H](Nc1ncnc2[nH]cnc12)c1cc2cccc(Cl)c2c(C(=O)Nc2ccccc2)n1 [Compound 25] | < 10 | < 0.1 | < 10 | > 10 | < 1
6 | C[C@H](Nc1ncnc2[nH]cnc12)c1cc2cccc(Cl)c2c(C(=O)NCc2ccccc2)n1 [Compound 26] | < 10 | < 0.1 | < 1 | > 10 | < 0.1
7 | C[C@H](Nc1ncnc2[nH]cnc12)c1cc2cccc(Cl)c2c(CC(=O)N2CCN(C)CC2)n1 [Compound 37] | > 10 | < 1 | > 10 | > 10 | < 1
8 | CC(=O)NCCOc1nc([C@H](C)Nc2ncnc3[nH]cnc23)cc2cccc(Cl)c12 [Compound 40, (S)—N-(2-(3-(1-(9H-purin-6-ylamino)ethyl)-8-chloroisoquinolin-1-yloxy)ethyl)acetamide] | < 10 | < 0.1 | < 1 | < 10 | < 0.1
9 | C[C@H](Nc1ncnc2[nH]cnc12)c1cc2cccc(Cl)c2c(OCC(=O)N2CCN(C)CC2)n1 [Compound 42] | < 10 | < 0.1 | > 10 | > 10 | < 1
10 | C[C@H](Nc1ncnc2[nH]cnc12)c1cc2cccc(Cl)c2c(OCC(=O)N2CCOCC2)n1 [Compound 43] | > 10 | < 0.1 | < 1 | < 10 | < 0.1
11 | CNC(=O)COc1nc([C@H](C)Nc2ncnc3[nH]cnc23)cc2cccc(Cl)c12 [Compound 44] | < 10 | < 0.1 | < 1 | < 10 | < 1
12 | CC(C)N1CCC(Oc2nc([C@H](C)Nc3ncnc4[nH]cnc34)cc3cccc(Cl)c23)CC1 [Compound 47, (S)—N-(1-(8-chloro-1-(1-isopropylpiperidin-4-yloxy)isoquinolin-3-yl)ethyl)-9H-purin-6-amine] | < 10 | < 0.1 | > 10 | < 10 | < 0.1
13 | C[C@H](Nc1ncnc2[nH]cnc12)c1cc2c(F)cccc2c(CCN2CCOCC2)n1 [Compound 53] | > 10 | < 0.1 | > 10 | > 10 | < 0.1
14 | Cc1cccc2cc([C@H](C)Nc3ncnc4[nH]cnc34)nc(OC3CCN(C(C)C)CC3)c12 [Compound 57] | < 10 | < 0.1 | > 10 | > 10 | < 1
15 | C[C@H](Nc1ncnc2[nH]cnc12)c1cc2c(F)ccc(Cl)c2c(CCN2CCOCC2)n1 [Compound 68] | > 10 | < 0.1 | < 10 | < 10 | < 0.1
16 | C[C@H](Nc1ccnc2ccnn12)c1cc2cccc(Cl)c2c(CCN2CCOCC2)n1 [Compound 73] | < 1 | < 0.1 | < 10 | < 10 | < 0.1
17 | C[C@H](Nc1ncnc2ccccc12)c1cc2cccc(Cl)c2c(CCN2CCOCC2)n1 [Compound 74] | < 10 | < 0.1 | < 10 | < 10 | < 1
18 | C[C@H](Nc1ncnc2cccnc12)c1cc2cccc(Cl)c2c(CCN2CCOCC2)n1 [Compound 75] | < 1 | < 0.1 | < 1 | < 1 | < 0.1
19 | C[C@H](Nc1ccnn2ccnc12)c1cc2ccccc2c(CCN2CCOCC2)n1 [Compound 77, (S)—N-(1-(1-(2-morpholinoethyl)isoquinolin-3-yl)ethyl)imidazo[1,2-b]pyridazin-8-amine] | > 10 | < 0.1 | > 10 | > 10 | < 0.1
20 | C[C@H](Nc1ncnc2[nH]cnc12)c1nc(CCN2CCOCC2)c2c(Cl)cccc2c1F [Compound 85, (S)—N-(1-(8-chloro-4-fluoro-1-(2-morpholinoethyl)isoquinolin-3-yl)ethyl)-9H-purin-6-amine] | > 10 | < 1 | > 10 | > 10 | < 1

Second part, led by results:

Row | IC50 [1] [µM] | IC50 [2] [µM] | IC50 [4] [µM] | IC50 [5] [µM] | SMILES | IC50 [3] [µM]
21 | < 10 | < 0.1 | < 10 | < 10 | C[C@H](Nc1ncnc2[nH]cnc12)c1cc2cccc(Cl)c2c(CCN2CCOCC2)n1 [Compound 4] | < 0.1
22 | > 10 | < 0.1 | < 10 | > 10 | C[C@H](Nc1ncnc2[nH]cnc12)c1cc2cccc(Cl)c2c(CN2CCOCC2)n1 [Compound 7] | < 0.1
23 | < 10 | < 1 | < 1 | < 10 | C[C@H](Nc1ncnc2[nH]cnc12)c1cc2cccc(Cl)c2c(CN2CCC(F)(F)C2)n1 [Compound 8] | < 1
24 | < 10 | < 0.1 | < 0.1 | > 10 | C[C@H](Nc1ncnc2[nH]cnc12)c1cc2cccc(Cl)c2c(C(=O)N2CCOCC2)n1 [Compound 13] | < 0.1
25 | > 10 | < 0.1 | < 10 | > 10 | C[C@H](Nc1ncnc2[nH]cnc12)c1cc2cccc(Cl)c2c(C(=O)N2CCCC2)n1 [Compound 14] | < 0.1
26 | < 10 | < 0.1 | > 10 | > 10 | C[C@@H]1CN(C(=O)c2nc([C@H](C)Nc3ncnc4[nH]cnc34)cc3cccc(Cl)c23)CCN1 [Compound 17] | < 1
27 | < 1 | < 0.1 | < 10 | < 10 | C[C@H](Nc1ncnc2[nH]cnc12)c1cc2cccc(Cl)c2c(C(=O)N2CCN[C@@H](C)C2)n1 [Compound 18] | < 1
28 | > 10 | < 0.1 | < 1 | > 10 | C[C@H](Nc1ncnc2[nH]cnc12)c1cc2cccc(Cl)c2c(C(=O)N2CCC(F)(F)C2)n1 [Compound 20] | < 0.1
29 | > 10 | < 0.1 | < 1 | > 10 | C[C@H](Nc1ncnc2[nH]cnc12)c1cc2cccc(Cl)c2c(C(=O)N2CC(F)(F)C2)n1 [Compound 21] | < 0.1
30 | < 10 | < 1 | < 10 | > 10 | C[C@H](Nc1ncnc2[nH]cnc12)c1cc2cccc(Cl)c2c(C(=O)N2CCC2)n1 [Compound 24] | < 1
31 | < 10 | < 0.1 | < 10 | > 10 | C[C@H](Nc1ncnc2[nH]cnc12)c1cc2cccc(Cl)c2c(CC(=O)N2CCCC2)n1 [Compound 36] | < 1
32 | > 10 | < 0.1 | < 10 | > 10 | C[C@H](Nc1ncnc2[nH]cnc12)c1cc2cccc(Cl)c2c(OCC(=O)N2CCCC2)n1 [Compound 45] | < 1
33 | < 10 | < 0.1 | > 10 | > 10 | C[C@H](Nc1ncnc2[nH]cnc12)c1cc2cccc(Cl)c2c(N2CCN(C)CC2)n1 [Compound 46, (S)—N-(1-(8-chloro-1-(4-methylpiperazin-1-yl)isoquinolin-3-yl)ethyl)-9H-purin-6-amine] | < 0.1

Source: US8901133B2, “Heterocyclic compounds and uses thereof” (Infinity Pharmaceuticals, Inc., priority 2010, dated 2014)
